Assay results as given in patent publication US10604524B2, “Pyrropyrimidine compounds as MNKs inhibitors” (LIFEARC, priority 2015, dated 2020).

Legend:
[1] = tested on: monocytic cell line THP-1; conditions: cited from earlier work
[2] = tested on: keratinocytes; conditions: cited from earlier work
[3] = molecular target: Full-length human MNK2 (Homo sapiens, UniProt Q9HBH9, T379D); test: MNK2 biochemical IC50 assay (Caliper mobility shift)
[4] = tested on: phosphorylation of eIF4E at ser209 in MV4.11 cell line; test: cells; assay type: cell-based; conditions: Homo sapiens; MV4.11 cells, 1.5 hr compound incubation, average of at least 2 independent experiments; read-out: plc50 elF4E (converted)
Protocol: MNK activity in cells was measured by monitoring the phosphorylation of eIF4E at ser209, the known endogenous substrate of MNK1/2, in cell lysates. […] The assay detection is based on the formation of sandwich antibody complexes coupled to donor and acceptor beads. Excitation at 680 nm causes the transfer of a singlet oxygen species between donor and acceptor beads when they are in close proximity by binding to the analyte […], which results in the emission of light at 520-620 nm.
Cells were then lysed and the Aphascreen Surefire protocol followed according to manufacturer's recommendations. 8 ul Acceptor beads (1:50 dilution in kit activation buffer) was added to lysate, shaken 150 rpm for 2 min and incubated for 1.5 hr at room temperature. 3 ul Donor beads (1:20 dilution in kit dilution buffer) were then added, shaken 150 rpm for 2 min and incubated for a further 1.5 hr at room temperature after which the plates were read on Pherastar FS using Alphascreen optic module.
Data were normalised relative to untreated DMSO only controls and curves repeated in duplicate within experiments. Data reported are averages of at least 2 independent experiments.

[5] = molecular target: Full-length human MNK1 (Homo sapiens, UniProt Q9BUB5, T385D); test: MNK1 biochemical IC50 assay (Caliper mobility shift)
Chain of Full-length human MNK1 (Q9BUB5 1-424 isoform Q9BUB5-2 T344D): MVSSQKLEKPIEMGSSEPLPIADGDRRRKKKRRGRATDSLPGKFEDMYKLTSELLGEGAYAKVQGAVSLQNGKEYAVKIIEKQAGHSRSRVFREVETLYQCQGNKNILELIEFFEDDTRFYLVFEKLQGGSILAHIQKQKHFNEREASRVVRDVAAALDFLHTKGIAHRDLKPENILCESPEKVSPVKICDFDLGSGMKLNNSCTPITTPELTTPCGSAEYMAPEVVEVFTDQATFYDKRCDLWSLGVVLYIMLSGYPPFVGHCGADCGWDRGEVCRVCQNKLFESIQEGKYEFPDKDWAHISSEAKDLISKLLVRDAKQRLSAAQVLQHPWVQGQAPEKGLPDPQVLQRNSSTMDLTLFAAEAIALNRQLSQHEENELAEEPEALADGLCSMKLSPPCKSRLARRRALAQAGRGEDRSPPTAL

[6] = tested on: HCT116 xenograft; conditions: HCT116 xenograft models; cited from earlier work
[7] = tested on: B16 melanoma lung metastases; conditions: in vivo; cited from earlier work
[8] = tested on: eIF4E phosphorylation; conditions: after oral administration, normal mouse tissues and xenografted tumors; cited from earlier work

Chain of Full-length human MNK2 (Q9HBH9 whole entry T379D): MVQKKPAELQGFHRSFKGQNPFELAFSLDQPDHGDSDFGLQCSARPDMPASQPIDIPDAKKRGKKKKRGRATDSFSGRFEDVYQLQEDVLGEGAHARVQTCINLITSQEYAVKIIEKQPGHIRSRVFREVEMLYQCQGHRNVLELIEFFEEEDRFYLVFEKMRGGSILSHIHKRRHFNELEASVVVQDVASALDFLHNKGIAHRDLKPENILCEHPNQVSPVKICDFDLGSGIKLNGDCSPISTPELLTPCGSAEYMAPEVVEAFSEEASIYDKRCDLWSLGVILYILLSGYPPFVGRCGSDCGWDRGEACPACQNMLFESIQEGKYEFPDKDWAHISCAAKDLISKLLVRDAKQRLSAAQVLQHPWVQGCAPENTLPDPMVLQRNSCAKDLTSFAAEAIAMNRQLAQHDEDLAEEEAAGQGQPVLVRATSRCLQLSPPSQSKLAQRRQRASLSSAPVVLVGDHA

Row | SMILES | IC50 [3] | IC50 [4] | IC50 [5] | further results
1 | Nc1ncnc2n[nH]c(Nc3ccc(F)cc3)c12 [CGP57380] | – | – | – | block of release of IL-1β and IL-8 induced by Shiga toxin [1]: 73-96%; TNF-production [2]: reduced TNF-production; expression of IL-1β and IL-6 [2]: decreased expression
2 | Cn1ccc2ncnc(Nc3ccc(F)cc3OC3CC3)c21 [Example 24, N-[2-(cyclopropoxy)-4-fluoro-phenyl]-5-methyl-pyrrolo[3,2-d]pyrimidin-4-amine] | 200 nM | 79.4 nM | 501 nM | –
3 | CC(C)Oc1cc(F)ccc1Nc1ncnc2ccn(C)c12 [Example 27, N-(4-fluoro-2-isopropoxy-phenyl)-5-methyl-pyrrolo[3,2-d]pyrimidin-4-amine] | 50.1 nM | 20 nM | 126 nM | –
4 | CC(C)Oc1ccccc1Nc1ncnc2ccn(C)c12 [Example 28, N-(2-isopropoxyphenyl)-5-methyl-pyrrolo[3,2-d]pyrimidin-4-amine] | 158 nM | 39.8 nM | 398 nM | –
5 | CC(C)Oc1ncccc1Nc1ncnc2ccn(C)c12 [Example 29, N-(2-isopropoxy-3-pyridyl)-5-methyl-pyrrolo[3,2-d]pyrimidin-4-amine] | 100 nM | 50.1 nM | 251 nM | –
6 | CCOc1cc(F)ccc1Nc1ncnc2ccn(C)c12 [Example 30, N-(2-ethoxy-4-fluoro-phenyl)-5-methyl-pyrrolo[3,2-d]pyrimidin-4-amine] | 126 nM | 63.1 nM | 200 nM | –
7 | Cn1ccc2ncnc(Nc3ccc(F)cc3OCC(F)F)c21 [Example 31, N-[2-(2,2-difluoroethoxy)-4-fluoro-phenyl]-5-methyl-pyrrolo[3,2-d]pyrimidin-4-amine] | 158 nM | 50.1 nM | 316 nM | –
8 | CC(C)Oc1c(Nc2ncnc3ccn(C)c23)ccc(F)c1F [Example 32, N-(3,4-difluoro-2-isopropoxy-phenyl)-5-methyl-pyrrolo[3,2-d]pyrimidin-4-amine] | 1000 nM | 794 nM | 2000 nM | –
9 | CC(C)Oc1c(F)cccc1Nc1ncnc2ccn(C)c12 [Example 33, N-(3-fluoro-2-isopropoxy-phenyl)-5-methyl-pyrrolo[3,2-d]pyrimidin-4-amine] | 50.1 nM | 25.1 nM | 100 nM | –
10 | CCOc1ncccc1Nc1ncnc2ccn(C)c12 [Example 34, N-(2-ethoxy-3-pyridyl)-5-methyl-pyrrolo[3,2-d]pyrimidin-4-amine] | 251 nM | 126 nM | 398 nM | –
11 | COc1ncccc1Nc1ncnc2ccn(C)c12 [Example 35, N-(2-methoxy-3-pyridyl)-5-methyl-pyrrolo[3,2-d]pyrimidin-4-amine] | 1260 nM | 1000 nM | 1580 nM | –
12 | Cn1ccc2ncnc(Nc3ccc(F)cc3O[C@H]3CCCC[C@@H]3O)c21 [Example 36, (1S,2S)-2-[5-fluoro-2-[(5-methylpyrrolo[3,2-d]pyrimidin-4-yl)amino]phenoxy]cyclohexanol] | 251 nM | 39.8 nM | 794 nM | –
13 | CO[C@H]1CCCC[C@@H]1Oc1cc(F)ccc1Nc1ncnc2ccn(C)c12 [Example 37, N-[4-fluoro-2-[(1S,2S)-2-methoxycyclohexoxy]phenyl]-5-methyl-pyrrolo[3,2-d]pyrimidin-4-amine] | 794 nM | 251 nM | 15800 nM | –
14 | CO[C@@H]1CCCC[C@H]1Oc1cc(F)ccc1Nc1ncnc2ccn(C)c12 [Example 38, N-[4-fluoro-2-[(1R,2R)-2-methoxycyclohexoxy]phenyl]-5-methyl-pyrrolo[3,2-d]pyrimidin-4-amine] | 316 nM | 39.8 nM | 2000 nM | –
15 | CN(C)CCCNC(=O)c1cc2ncnc(N3CCc4cc(F)ccc43)c2[nH]1 [Example 39, N-[3-(dimethylamino)propyl]-4-(5-fluoroindolin-1-yl)-5H-pyrrolo[3,2-d]pyrimidine-6-carboxamide] | 12.6 nM | 25.1 nM | 12.6 nM | –
16 | CC(C)Oc1cc(F)ccc1Nc1ncnc2cc(C(=O)NCCN3CCNCC3)n(C)c12 [Example 42, 4-{[4-Fluoro-2-(propan-2-yloxy)phenyl]amino}-5-methyl-N-[2-(piperazin-1-yl)ethyl]-5H-pyrrolo[3,2-d]pyrimidine-6-carboxamide] | 50.1 nM | 100 nM | 50.1 nM | –
17 | CC(C)Oc1cc(F)ccc1Nc1ncnc2c(Cl)c(C(=O)NCCCN(C)C)n(C)c12 [Example 43, 7-Chloro-N-[3-(dimethylamino)propyl]-4-{[4-fluoro-2-(propan-2-yloxy)phenyl]amino}-5-methyl-5H-pyrrolo[3,2-d]pyrimidine-6-carboxamide] | 1000 nM | 794 nM | 1260 nM | –
18 | CC(C)Oc1cc(F)ccc1Nc1ncnc2cc(C(=O)NCCCN(C)C)[nH]c12 [Example 44, N-[3-(dimethylamino)propyl]-4-(4-fluoro-2-isopropoxy-anilino)-5H-pyrrolo[3,2-d]pyrimidine-6-carboxamide] | 63.1 nM | 63.1 nM | 79.4 nM | –
19 | CC(C)Oc1cc(F)ccc1Nc1ncnc2cc[nH]c12 [Example 45, N-(4-fluoro-2-isopropoxy-phenyl)-5H-pyrrolo[3,2-d]pyrimidin-4-amine] | 79.4 nM | 501 nM | 126 nM | –
20 | CC(=O)C1=C(O)C=C2Oc3c(C(N)=O)c(O)cc(O)c3[C@]2(C)C1=O [cercosporamide] | – | – | – | tumor growth [6]: reducing tumor growth; outgrowth of B16 melanoma lung metastases [7]: suppressing the outgrowth; time to effectively block eIF4E phosphorylation [8]: ≤ 30 min
